Test [1] has as its system CCR7−CD45RA− T cells. The format is cell-based, human. The note with it: monovalent Nanobodies. The source says:
The purified anti-Kv1.3 Nanobodies were characterized in a T Cell-activation assay. Human T Cells were first collected from Buffy Coat blood (from healthy volunteers, Bloodbank Gent) using RosetteSep (StemCell Technologies, #15061) followed by an enrichment on Ficoll-Paque™ PLUS (GE Healthcare #17-1440-03). CCR7−CD45RA− T cells were isolated through negative selection using biotinylated antibodies against CD45RA (BD Bioscience #624008) and CCR7 (BD Bioscence #624009) in addition to the Dynabeads Biotin Binder (Invitrogen #110.47). […]
Isolated CCR7^−CD45RA^− T Cells were then stimulated on anti-CD3 (eBioscience 16-0037-85; 540 ng/ml) coated 96-well plates at a concentration of 200 000 cells/well in absence or presence of dilution series of anti-Kv1.3 antibodies and ShK positive control (Smartox, #08SHK001). After 72 h, IFN-gamma production was measured with anti-human IFNγ antibody capture in ELISA (BD Bioscence #551221) combined with biotinylated anti-human IFNγ (BD Bioscience, #554550) and streptavidin-HRP (Dakocytomation #P0397) as detection (FIG. 11A-11B).
In addition, also CD25 expression was measured in flow cytometry, using an anti-CD25 antibody (BD Pharmingen, cat 557138) (FIG. 11C-11D). […]

Test [2] deals with DNFB-induced delayed type hypersensitivity in Wistar rats. Put plainly: DNFB-induced delayed-type hypersensitivity (DTH) rat model, ear swelling. Format: in vivo. The source says: A delayed-type hypersensitivity (DTH) reaction is an expression of T cell-mediated immunity in response to cutaneous sensitization and challenge with reactive haptens like 2, 4-dinitrofluorobenzene (DNFB), largely mediated by skin-homing effector memory T cells (Azam P et al., J Invest Dermatol 127(6):1419-29, 2007; Matheu M P et al., Immunity 29(4):602-14, 2008). The voltage-gated potassium channel Kv1.3 is expressed in T cells, and is important in maintaining T cell activation (predominantly effector memory T cells).
For the purpose of in vivo proof-of-concept, the efficacy of anti-Kv1.3 Nanobodies on DNFB-induced delayed type hypersensitivity in Wistar rats was evaluated. The DTH response in the rats was elicited as follows (see FIG. 37): on day 0 (start of the in-life) and day 1, 100 μl of 1% (wt/vol) DNFB prepared in 4:1 acetone/olive oil was applied to the shaved dorsum for sensitization. On day 5, animals were challenged on both sides of the right ear pinnae of the animals with 50 μl of 0.5% (wt/vol) DNFB prepared in 4:1 acetone: olive oil. […] As positive control, animals were treated with dexamethasone (topical, 0.75 mg at 1 hour and 6 hours post-challenge). On day 5 before DNFB challenge, the baseline right ear pinna thickness was measured, and the net ear swelling response was determined 24 hours after challenge with a spring-loaded micrometer.
The DTH response in the rats was elicited as follows (see FIG. 37): on day 0 (start of the in-life) and day 1, 100 μl of 1% (wt/vol) DNFB prepared in 4:1 acetone/olive oil was applied to the shaved dorsum for sensitization. On day 5, animals were challenged on both sides of the right ear pinnae of the animals with 50 μL of 0.5% (wt/vol) DNFB prepared in 4:1 acetone: olive oil. Animals (n=10 rats/group) received two subcutaneous (s.c.) injections of either vehicle, the benchmark compound ShK or the anti-Kv1.3 Nanobody at 12 hours and/or 1 hour preceding the challenge. As positive control, animals were treated with dexamethasone (topical, 0.75 mg at 1 hour and 6 hours post-challenge). On day 5 before DNFB challenge, the baseline right ear pinna thickness was measured, and the net ear swelling response was determined 24 hours after challenge with a spring-loaded micrometer.

Test [3] has as its target T1, human Kv1.3 (Homo sapiens, UniProt P22001).
T1 construct: cell lines stably expressing the full length human Kv1.3 channel
Nature of the test: FACS competition with FAM-labeled ShK on HEK293H human Kv1.3 cells. The format is binding. Particulars: 70 nM ShK-FAM. How it is done: To evaluate the competition between the toxin ShK and the Nanobodies for binding to Kv1.3, a FACS competition experiment was performed using HEK293H cells overexpressing human Kv1.3 and the parental HEK293H cells as background cell line. As detection reagent, FAM-labeled ShK was used (6-FAM-AEEAc-Stichodactyla helianthus Neurotoxin (ShK) (Bachem, H-6088, 1046522, PRT00000366/01/01)). To setup the assay, first a titration series of the labeled Shk-FAM was performed on the HEK293H Kv1.3 cells in order to determine the EC50 value for binding.
In brief, a dilution series of ShK or Nanobody were added together with the labeled toxin to 200 000 cells in a 96-well plate. After 90 minutes incubation at 4° C., cells were washed three times before read out was performed on a FACS Canto (Becton Dickinson). First a gate was set on the intact cells as determined from the scatter profile. Next, dead cells were gated out by their fluorescence profile from the TOPRO stain (5 nM, Molecular probes, T3605). […] The percentage of inhibition for Nanobodies blocking the interaction of ShK to human Kv1.3 is depicted in Table B-11.

Test [4] relates to human PBMCs. Nature of the test: IFNγ production by human PBMCs after anti-CD3 with or without anti-CD28 stimulation. Format: cell-based. The protocol:
The anti-Kv1.3 inhibitory Nanobodies were evaluated for their effect on cytokine secretion by plate-bound anti-CD3/CD28 stimulated PBMCs. ShK was included as reference compound (FIG. 30). This co-stimulation of T-cells with anti-CD3 and anti-CD28 reflects strong immune stimulation as encountered during an acute infection. Single stimulation with anti-CD3 imitates rather the moderate immune stimulation resembling the situation during e.g. an autoimmune disease.
Briefly, PBMCs were first collected from Buffy Coat blood (from healthy volunteers, Bloodbank Gent) using RosetteSep (StemCell Technologies, #15061) followed by an enrichment on Ficoll-Paque™ PLUS (GE Healthcare #17-1440-03). The purity of the population was afterwards checked with anti-CD3 (eBioscience #12-0037-73); anti-CD8 (BD Bioscience #345775); anti-CD4 (BD Bioscience #345771); anti-CD45RO (BD Bioscience #555493); anti-CD45RA (BD Bioscience #550855) and anti-CD19 (BD Bioscience #555413) fluorescently labeled antibodies in a flow cytometric assay. […] After 72 h, IFN-gamma production was measured with anti-human IFNγ antibody capture in ELISA (BD Bioscence #551221) combined with biotinylated anti-human IFNγ (BD Bioscience, #554550) and streptavidin-HRP (Dakocytomation #P0397) as detection.

These results are taken from US11149086B2, “KV1.3 binding immunoglobulins” (Ablynx N.V., priority 2014, dated 2021).

pIC50: −log10 of the molar value. Bridge positions count the residues as written; N and C are the ends. Peptide text beside a SMILES is read from it.

A word on the pIC50: it is the IC50 on a negative log10 scale, so that one unit is a factor of ten.

T1 sequence (P22001 whole entry): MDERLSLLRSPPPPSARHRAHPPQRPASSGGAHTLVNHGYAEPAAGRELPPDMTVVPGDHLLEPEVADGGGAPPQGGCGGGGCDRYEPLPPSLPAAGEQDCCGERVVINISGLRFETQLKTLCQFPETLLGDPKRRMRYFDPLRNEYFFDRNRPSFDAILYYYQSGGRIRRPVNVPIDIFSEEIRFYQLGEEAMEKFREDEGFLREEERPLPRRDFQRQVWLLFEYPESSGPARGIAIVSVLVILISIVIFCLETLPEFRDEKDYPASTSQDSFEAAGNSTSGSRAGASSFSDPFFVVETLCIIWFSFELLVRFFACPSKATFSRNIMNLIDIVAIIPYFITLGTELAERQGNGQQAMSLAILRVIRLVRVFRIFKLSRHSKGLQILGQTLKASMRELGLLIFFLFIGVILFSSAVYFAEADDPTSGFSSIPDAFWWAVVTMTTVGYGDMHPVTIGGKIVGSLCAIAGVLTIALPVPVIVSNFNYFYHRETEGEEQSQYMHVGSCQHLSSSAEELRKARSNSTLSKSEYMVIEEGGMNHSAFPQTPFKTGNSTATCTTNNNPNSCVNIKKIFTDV

Turning to `CC[C@H](C)[C@H](NC(=O)[C@@H](N)[C@@H](C)O)C(=O)N[C@H](C(=O)N[C@@H](CC(N)=O)C(=O)N[C@H](C(=O)N[C@@H](CCCCN)C(=O)N[C@H]1CSSC[C@@H]2NC(=O)[C@H](CCCCN)NC(=O)[C@H](C)NC(=O)CNC(=O)[C@H](C)NC(=O)[C@H](CO)NC(=O)[C@H](CCC(N)=O)NC(=O)CNC(=O)[C@H](Cc3ccccc3)NC(=O)[C@H](CCC(N)=O)NC(=O)[C@H](C)NC(=O)[C@H](CCCCN)NC(=O)[C@@H]3CSSC[C@@H](C(=O)N[C@@H](Cc4ccc(O)cc4)C(=O)N4CCC[C@H]4C(=O)N[C@@H](Cc4c[nH]cn4)C(=O)O)NC(=O)[C@H](CCCCN)NC(=O)[C@H](CSSC[C@H](NC(=O)[C@H](CCC(N)=O)NC(=O)[C@H](CCCCN)NC(=O)[C@@H]4CCCN4C(=O)[C@H](CO)NC(=O)[C@H]([C@@H](C)O)NC1=O)C(=O)N[C@@H](CC(C)C)C(=O)N1CCC[C@H]1C(=O)N1CCC[C@H]1C(=O)N3)NC(=O)[C@H](CCCCN)NC(=O)CNC(=O)[C@H](CC(N)=O)NC(=O)[C@H](CCSC)NC2=O)C(C)C)[C@@H](C)CC` [MgTX, margatoxin, reference compound] (H-TIINVKCTSPKQCLPPCKAQFGQSAGAKCMNGKCKCYPH-OH; disulfide 7-29, 13-34, 17-36; N-terminus and C-terminus assumed), in test [1] (plate bound anti-CD3), the “IC50 (in M) CD25 read out” value was “no fit”. Also, in test [1] (plate bound anti-CD3, 72 h, read-out: IC50 (in M) IFNγ read out), the pIC50 is 10.03.

As to `CC[C@H](C)[C@@H]1NC(=O)[C@@H](NC(=O)[C@H](CO)NC(=O)[C@@H](N)CCCNC(=N)N)CSSC[C@@H](C(=O)O)NC(=O)[C@H]([C@@H](C)O)NC(=O)CNC(=O)[C@@H]2CSSC[C@@H]3NC(=O)[C@H](CCC(N)=O)NC(=O)[C@H](Cc4ccccc4)NC(=O)[C@H](C)NC(=O)[C@H]([C@@H](C)O)NC(=O)[C@H](CSSC[C@H](NC(=O)[C@H](Cc4ccccc4)NC(=O)[C@H](CO)NC(=O)[C@H](CC(C)C)NC(=O)[C@H](CCCNC(=N)N)NC(=O)[C@H](Cc4ccc(O)cc4)NC(=O)[C@H](CCCCN)NC(=O)[C@H](CCSC)NC(=O)[C@H](CO)NC(=O)[C@H](Cc4c[nH]cn4)NC(=O)[C@H](CCCCN)NC3=O)C(=O)N[C@@H](CCCNC(=N)N)C(=O)N[C@@H](CCCCN)C(=O)N[C@@H]([C@@H](C)O)C(=O)N2)NC(=O)[C@H](CCCNC(=N)N)NC(=O)[C@H](CO)NC(=O)[C@H](CCCCN)NC(=O)[C@@H]2CCCN2C(=O)[C@H]([C@@H](C)CC)NC(=O)[C@H]([C@@H](C)O)NC(=O)[C@H](CC(=O)O)NC1=O` [ShK], the “mean increase in ear thickness” value in test [2] (Example 12, two s.c. injections of 10 μg/kg, 12 h and 1 h pre-challenge) is 0.213±0.019 mm; in test [2] (Example 13, two s.c. injections of 100 μg/kg), 0.136±0.024 mm. The “blocking of FAM labeled ShK binding to Kv1.3, in words” value in test [3] was “completely blocked”. Further, the “IFNγ production, PBMCs co-stimulated with anti-CD3 and anti-CD28” value in test [4] (anti-CD3 and anti-CD28, 72 h) is recorded as “do not inhibit”. The “IFNγ production, PBMCs stimulated with anti-CD3 only” value in test [4] (single anti-CD3 stimulation, 72 h) is reported as “Inhibition”.

In the case of `C[C@@H]1C[C@H]2[C@@H]3CCC4=CC(=O)C=C[C@]4(C)[C@@]3(F)[C@@H](O)C[C@]2(C)[C@@]1(O)C(=O)CO` [dexamethasone], the “mean increase in ear thickness” value in test [2] (Example 12, topical 0.75 mg at 1 h and 6 h post-challenge, 24 h after challenge) was determined as 0.027±0.017 mm; in test [2] (Example 13, topical 0.75 mg at 1 h and 6 h post-challenge), 0.018±0.016 mm.
